Measurements reported in patent US9340532B2, “Methods and compositions for inhibiting CNKSR1” (PHUSIS THERAPEUTICS, INC., priority 2012, dated 2016).
Several values for one entry are separate records, joined by “and”; a condition that tells them apart may be missing. Identical values can stand only once. Like-named read-outs stand apart in the source and are kept apart here.

Key:
[1] = tested on: mut-KRAS NSCLC cell lines; assay: Screening against NSCLC cell line panel, mut-KRAS lines; assay type: cell-based
Protocol: (§1) The isogenic KRAS lines harboring G12D, G12C, and G12V were obtained from Horizon Discovery labs on a one year lease. These cells were cultured in McCoys media with 10% FBS to 80% confluency. Cells were then released from flasks via trypsinization and plated into 96-well plates at an initial density range of 2000 cells per well. Cells were allowed 24 hours to attach, and then the agents were added to the culture media at a range of concentrations from 0-100 μM. Cells were incubated for 72 hours with the drugs, and then viability was assessed using an MTS viability assay. Cells were exposed to MTS reagent (Promega) dissolved in PBS (Hyclone) at a concentration of 200 μL reagent/mL media for 2 hours. Absorbance was then read at 490 nm, and viability was expressed as a percentage normalized between the negative control (no cells plated) and the condition of cells with no drug added (100% viability) normalized as the upper limit of viability.
(§2) Our panel of 30 cell lines and an extensive characterization were obtained from Dr. John Minna (UTSW). All cell lines were cultured in RPMI 1640 with 10% FBS. Cells were treated with concentrations of agents at concentrations 0.01 to 50 μM and evaluated as described above. IC50's were determined using Excelfit.

PH-domain of Tiam1 = assay: SPR binding to expressed PH-domain of Tiam1
Protocol: (§3) In embodiments, the binding of identified compounds to the crystal structures of other PH-domain signaling proteins, AKT, PDPK1, Btk, and Tiam1 can be predicted. In such embodiments, the Kds exceed about 100 μM. In other embodiments, SPR can measure the binding of identified compounds to the expressed PH-domains of AKT, PDPK1 and Tiam1. […] Thus, the identified compounds appear have, at least, about 50 to about 100 fold selectivity for CNKSR1 compared to the other PH-domains studied.
(§4) A commercially available docking package, GOLD (GOLD [3.2], CCDC: Cambridge, UK, 2007) was used to evaluate the docking of compounds 1-7 into the binding pocket, see e.g. Table 5. Other docking was performed using modeling algorithms with state-of-the-art commercial drug discovery software (Schrodinger suite). GLIDE was chosen as the docking algorithm used to select and optimize compounds, providing a GlideScore as a rough estimate of binding affinity that was used to rank and select the best compounds. Additionally, ligand-based approaches provided an alternative to structure based drug discovery. Ligand-based virtual screening methodologies can take into account shape and electrostatics (like ROCS) and the pharmacophoric features (acceptor, donor, hydrophobic, aromatic, etc.) of its functional groups. […]

PH-domain of PDPK1 = molecular target: T1, PH-domain of PDPK1 (Homo sapiens, UniProt O15530); assay: SPR binding to expressed PH-domain of PDPK1
T1 construct: made in house
T1 sequence (O15530 459-550 limits assumed): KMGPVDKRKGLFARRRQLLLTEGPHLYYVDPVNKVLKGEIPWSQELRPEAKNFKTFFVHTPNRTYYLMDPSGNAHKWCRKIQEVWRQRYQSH
Protocol: as §3, §4

PH-domain of AKT = molecular target: T2, PH-domain of AKT (Homo sapiens, UniProt P31749); assay: SPR binding to expressed PH-domain of AKT
T2 construct: made in house
T2 sequence (P31749 5-108 limits assumed): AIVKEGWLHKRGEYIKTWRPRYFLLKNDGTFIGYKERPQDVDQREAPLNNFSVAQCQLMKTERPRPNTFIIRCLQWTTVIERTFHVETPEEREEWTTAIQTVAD
Protocol: as §3, §4

PLE = assay: SPR binding, PLE; conditions: Table 8
Protocol: as §4, with “groups. Inositol tetraphosphate (IP4) binding to the PH-domain of CNKSR1 provided a good starting point for shape screening. Both structure-based and ligand-based approaches were used to find novel compounds (Table 7) and to refine and improve lead compounds (Tables 8, and 9). SPR interaction analyses for Compounds 1 through 7 were performed with a Biacore 2000, using Biacore2000 Control Software v3.2 and BIAevaluation v4.1 analysis software (Biacore) as described in Mol Cancer Ther 7:2621 (2008).” for “groups.”

[2] = tested on: H226 (KRAS wildtype cell line); assay: Proliferation Assay H226; assay type: cell-based; conditions: Homo sapiens, NCI-H226, n = 1
Protocol: as §1, §2

[3] = tested on: A549 (KRAS mutant cell line); assay: Proliferation Assay A549; assay type: cell-based; conditions: Homo sapiens, N = 2 experiments
Protocol: as §1, §2

AKT1 PH-domain = molecular target: T3, AKT1 PH-domain (Homo sapiens, UniProt P31749); assay: SPR binding assay (Biacore T100), AKT1 PH-domain; conditions: read-out: AKT KD
T3 construct: The PH-domain His-fusion proteins (CNK1 and AKT1) were expressed and immobilized on a NTA chip; made in house
T3 sequence (P31749 5-108 limits assumed): as above
Protocol: (§5) All interaction analyses were done with a Biacore T100 Control Software v3.2, and BIAevaluation v4.1 analysis software (Biacore). The PH-domain His-fusion proteins (CNK1 and AKT1) were expressed and immobilized on a NTA chip to a level of 10,000 response units or less. Small molecule analytes at concentrations ranging from 50 μM to 0.010 μM were injected at a high flow rate (30 μL/min) DMSO concentrations in all samples and running buffer were 1-5% (v/v).
A commercially available docking package, GOLD (GOLD [3.2], CCDC: Cambridge, UK, 2007) was used to evaluate the docking of compounds 1-7 into the binding pocket, see e.g. Table 5. Other docking was performed using modeling algorithms with state-of-the-art commercial drug discovery software (Schrodinger suite). GLIDE was chosen as the docking algorithm used to select and optimize compounds, providing a GlideScore as a rough estimate of binding affinity that was used to rank and select the best compounds. Additionally, ligand-based approaches provided an alternative to structure based drug discovery. Ligand-based virtual screening methodologies can take into account shape and electrostatics (like ROCS) and the pharmacophoric features (acceptor, donor, hydrophobic, aromatic, etc.) of its functional groups. Inositol tetraphosphate (IP4) binding to the PH-domain of CNKSR1 provided a good starting point for shape screening. Both structure-based and ligand-based approaches were used to find novel compounds (Table 7) and to refine and improve lead compounds (Tables 8, and 9). SPR interaction analyses for Compounds 1 through 7 were performed with a Biacore 2000, using Biacore2000 Control Software v3.2 and BIAevaluation v4.1 analysis software (Biacore) as described in Mol Cancer Ther 7:2621 (2008). SPR interaction analyses of all other compounds was undertaken using a Biacore T100 with Control and Evaluation software kit.

[4] = tested on: H1373 (KRAS mutant cell line); assay: Proliferation Assay H1373; assay type: cell-based; conditions: Homo sapiens, NCI-H1373, N = 2 experiments
Protocol: as §1, §2

[5] = tested on: H1975 (KRAS wildtype cell line); assay: Proliferation Assay H1975; assay type: cell-based; conditions: Homo sapiens, NCI-H1975, n = 1
Protocol: as §1, §2

CNK1 PH-domain (CNKSR1) = molecular target: T4, CNK1 PH-domain (CNKSR1) (Homo sapiens, UniProt Q969H4); assay: SPR binding assay (Biacore T100), CNK1 PH-domain; conditions: for Surface Plasmon Resonance CNKSR1 binding (RU max) / Surface Plasmon Resonance CNKSR1 stability (RU max post-injection): date 12 09 13
T4 construct: The PH-domain His-fusion proteins (CNK1 and AKT1) were expressed and immobilized on a NTA chip; made in house
T4 sequence (Q969H4 403-502 limits assumed): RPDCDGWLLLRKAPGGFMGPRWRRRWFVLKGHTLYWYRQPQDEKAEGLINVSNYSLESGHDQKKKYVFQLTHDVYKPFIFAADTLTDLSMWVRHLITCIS
Protocol: as §5
(§6) Other docking was performed using modeling algorithms with state-of-the-art commercial drug discovery software (Schrodinger suite). […] Additionally, ligand-based approaches provided an alternative to structure based drug discovery. Ligand-based virtual screening methodologies can take into account shape and electrostatics (like ROCS) and the pharmacophoric features (acceptor, donor, hydrophobic, aromatic, etc.) of its functional groups. […] SPR interaction analyses of all other compounds was undertaken using a Biacore T100 with Control and Evaluation software kit.

PH-domain of CNKSR1 = molecular target: T5, PH-domain of CNKSR1 (Homo sapiens, UniProt Q969H4); assay: SPR binding (Biacore 2000) to CNKSR1 PH-domain, initial hits; conditions: Table 5
T5 sequence (Q969H4 403-502 limits assumed): T4 sequence (Q969H4 403-502 limits assumed)
Protocol: In embodiments, a homology model for the PH-domain of CNSKR1 based on known PH-domain crystal structures can be developed. The docking program PHuDock® can be used to identify potential inhibitors of CNKSR1. […] The binding of the compounds to the expressed PH-domain of CNKSR1 (KDobs) can be measured by surface plasmon resonance (SPR) spectroscopy.
as §6

wt-KRAS NSCLC cell lines = assay: Screening against NSCLC cell line panel, wt-KRAS lines; assay type: cell-based; conditions: Table 6, mean of 3 wt-KRAS lines; read-out: NSCL cell line cytotoxicity IC50 wt-KRAS
Protocol: as §1, §2

[6] = Mouse pharmacokinetics (iv); assay type: in vivo
[7] = Pharmacokinetics after oral administration; assay type: in vivo, mice; conditions: compound 8 administered orally to mice at the same dose (200 mg/kg); 200 mg/kg
Protocol: In order to understand better the reasons for the antitumor activity of compound #7 pharmacokinetic studies were conducted. […] Following oral administration in vivo plasma concentrations of the parent compound were low, about 3 μg/ml (7 μM) whereas the de-esterified acid form (compound 8) was present at high peak concentrations of around 50 μg/ml (128 μM). When compound 8 was administered orally to mice at the same dose even higher peak concentrations of 90 μg/ml (230 μM) were achieved.

Kd (PLE) [µM]	IC50 [2] [µM]	IC50 [3] [µM]	Kd (AKT1 PH-domain; Table 8) [µM]	IC50 [4] [µM]	IC50 [5] [µM]	Kd (CNK1 PH-domain (CNKSR1); Table 8, read-out: CNK KD) [µM]	Surface Plasmon Resonance CNKSR1 binding (RU max) (CNK1 PH-domain (CNKSR1)) [RU * 100/Da]	Surface Plasmon Resonance CNKSR1 stability (RU max post-injection) (CNK1 PH-domain (CNKSR1)) [RU * 100/Da]	Compound	other results
									CCOC(=O)Cc1nn(SCC(=O)O)c(=O)c2ccccc12 [#4]	inhibition of mut-KRAS cell growth (in words) ([1]; FIG. 3 and FIG. 5): low micromolar inhibition; SPR binding to PH-domain of Tiam1 (PH-domain of Tiam1): No measurable binding; SPR binding to PH-domain of PDPK1 (PH-domain of PDPK1): No measurable binding; SPR binding to PH-domain of AKT (PH-domain of AKT): No measurable binding
300	> 100	75	330	> 100	> 100	0.157	2.635	3.148	CCOC(=O)/C=C/c1c(O)c(OC)cc(NS(=O)(=O)c2cccs2)c1SC [Compound 103, ethyl (2E)-3-[2-hydroxy-3-methoxy-6-(methylsulfanyl)-5-(thiopliene-2-sulfonamido)phenyl]prop-2-enoate]	
									CC(=O)Nc1cccc(-n2nnc(SCC(=O)c3cc(-c4ccccc4)no3)n2)c1 [Compound 120]	Kd (PH-domain of CNKSR1): 3.3 ± 1.2 µM; IC50 ([1]; Table 5, read-out: Mean IC50 mut-KRAS): 47 ± 5.2 µM
261	> 100	> 100	75.2	> 100	> 100	0.186	0.817	1.138	CCOC(=O)/C=C/c1cc(NS(=O)(=O)c2cccs2)c2c(c1O)OCO2 [Compound 88, (E)-ethyl 3-(4-hydroxy-7-(thiophene-2-sulfonamido)benzo[d][1,3]dioxol-5-yl)acrylate]	
									Cc1ccc(-c2csc(Cn3nc(CC(=O)O)c4ccccc4c3=O)n2)cc1 [Compound 8]	activity in cells in culture ([1]; FIG. 5): inactive; IC50 ([1]; Table 6, mean of 3 mut-KRAS lines, read-out: NSCL cell line cytotoxicity IC50 mut-KRAS): > 100 µM; IC50 (wt-KRAS NSCLC cell lines): > 100 µM; Kd (AKT1 PH-domain; Table 6): 51.6 µM; t1/2β [6]: 1.2 h; clearance ([6]; in vivo): 285 L/h/kg; Kd (CNK1 PH-domain (CNKSR1); Table 6, read-out: CNKS KD): > 100 µM; peak plasma concentration [7]: 90 μg/ml and 230 μM
